Data taken from patent publication EP0443573A2, “HIV protease inhibitors containing derived amino acids” (BIO-MEGA/BOEHRINGER INGELHEIM RESEARCH INC., priority 1990, dated 1991).

target: T1, HIV protease (Human immunodeficiency virus type 1 group M subtype B, UniProt P04585); assay: Recombinant HIV Protease HPLC Assay; format: biochemical; conditions: recombinant HIV protease expressed in E. coli; substrate VSFNFPQITL-NH₂; pH 5.5; 37° for 30 min; HPLC readout
T1 construct: HIV protease was expressed in E. coli; made in house; host or cells: E. coli
Text: The procedure is based on the capacity of the test compound to inhibit enzymatic cleavage by HIV protease of a decapeptide (the substrate) having an amino acid sequence which includes a known HIV protease cleavage site of a HIV polyprotein; see H.G. Krausslich et al., Proc. Natl. Acad. Sci. USA, 86, 807 (1989). Details of this assay together with the results obtained for exemplified compounds of formula 1 are described in the examples hereinafter.
Recombinant HIV Protease HPLC Assay: Enzyme: HIV protease was expressed in E. coli [construct pBRT1 prt⁺, see W.G. Farmerie et al., Science, 236,305 (1987)], according to the following protocol: Unless stated otherwise, all solutions are aqueous solutions.
E. coli cells containing the pBRT1 prt⁺ plasmid were used to inoculate a seed culture media composed of Luria-Bertani Broth containing 100µg/mL of ampicillin. Flasks were incubated at 37° under agitation for 17 h. Production flasks containing sterile M9 broth, supplemented with 100µg/ml of ampicillin, were inoculated at a level of 1% (v/v) using the seed culture described above. Total volume in each production flask was 500 mL in a 2 L Erlenmeyer flask. Flasks were incubated at 37° under agitation until a cell concentration corresponding to an optical density (λ = […]) of 0.6 was reached (no dilution). This time span was routinely 3-4 h. Flasks were then supplemented with 5mM isopropylthiogalactoside (IPTG, Research Organics, Cleveland, Ohio, USA) and incubation was continued until the cell concentration reached an optical density of 0.2 at 16-fold dilution. Flasks were then supplemented with 1mM phenylmethylsulfonyl fluoride (PMSF) and rapidly chilled to 4°. The bacterial cells were recovered by centrifugation at 4°. The wet pellet was stored at -70°.
All steps below were performed at 4° unless otherwise indicated. Thawed cells were mixed with buffer A [50 mM […] HCl(Tris-HCl, pH 7.4); 0.6 mM ethylenediaminetetraacetic acid (EDTA); 0.375 M NaCl, 0.2% Nonidet P-40 ^R (BDH Chemicals Ltd., Poole, UK); 1mM PMSF], at a ratio of one part cells to nine parts buffer A. Diatomaceous earth (Celite 545 ^R , John Manville, Lompoc, CA, USA) was added at a ratio of two parts to one part of wet cell weight. The resulting slurry was homogenized at high speed (ca. 20,000 rpm) on a Waring ^R industrial blender for 8 x 15 sec. pulses. Cell debris/Celite ^R was collected by centrifugation and the resulting pellet was extracted with 4.5 parts of buffer A to one part wet solids using the homogenization procedure described above. Supernatants from both homogenization steps were combined and soluble protein was precipitated by the addition of solid (NH₄)₂SO₄ to yield a final concentration of 75% saturation. This mixture was agitated for 60 min and the precipitate was recovered by centrifugation. The resulting pellet was suspended in buffer B [50mM Tris-HCl, pH 8; 30 mM NaCl; 1 mM DL-dithiothreitol(DTT); 1 mM EDTA; 1 mM PMSF; 10% glycerol], and dialyzed for 18h against the same buffer.
An aliquot of the dialyzed extract containing 150 mg of the protein was loaded onto a Sephadex A25 ^R anion exchange column. (Pharmacia, Uppsala, Sweden) with bed dimensions of 70 cm length and 2.5 cm diameter. The sample was eluted isocratically with buffer B at a linear flow rate of 10 cm/h. Fractions containing HIV protease activity (see below for assay description) were combined, and soluble protein was precipitated by the addition of saturated aqueous (NH₄)₂SO₄ to yield a total (NH₄)₂SO₄ concentration of 85% saturation. Precipitated protein was removed by centrifugation and the resulting pellet was dissolved in buffer C[50 mM 2-(4-morpholino)ethanesulfonic acid (MES), pH 5.5; 150 mM NaCl; 1 mM DTT; 1 mM EDTA; 10% glycerol]. This preparation was dialyzed for 18h against buffer C, and then frozen at -70°. All crude extracts were purified by chromatography in aliquots containing 150 mg of protein in the same manner as described above. […]

Compound | IC50 [nM]
CCC(CC)C(=O)NC(C(=O)NC(CC1CCCCC1)C(O)CC(=O)NC(CC1CC1)C(=O)NCCCc1ccccc1)C(C)C (stereo not shown) [(C2H5)2CHC(O)-Val-ACHPA-Cpa-NHCH2CH2CH2Ph] | 135
CC(C)(C)CC(=O)NC(C(=O)NC(CC1CCCCC1)C(O)CC(=O)NC(CCC(=O)O)C(=O)NCCc1ccccc1)C(C)(C)C (stereo not shown) [(CH3)3CCH2C(O)-Tbg-ACHPA-Glu-NHCH2CH2Ph, (CH₃)₃CCH₂C(O)-Tbg-ACHPA-Glu-NHCH₂CH₂Ph] | 110
COC(=O)CCC(NC(=O)CC(O)C(CC1CCCCC1)NC(=O)C(NC(=O)C(O)CO)C(C)(C)C)C(=O)NCCc1ccccc1 [(S)-HOCH₂CH(OH)C(O)-Tbg-ACHPA-Glu(OMe)NHCH₂CH₂Ph] | 200
CC(C)(C)C(NC(=O)C(O)CO)C(=O)NC(CC1CCCCC1)C(O)CC(=O)NC(CCC(=O)O)C(=O)NCCc1ccccc1 [(S)-HOCH₂CH(OH)C(O)-Tbg-ACHPA-Glu-NHCH₂CH₂Ph] | 9.2
CC(=O)NC(C(=O)NC(CC1CCCCC1)C(O)CC(=O)NC(CC1CC1)C(=O)NCCc1ccccc1)C(C)(C)C (stereo not shown) [Ac-Tbg-ACHPA-Cpa-NHCH2CH2Ph, Ac-Tbg-ACHPA-Cpa-NHCH₂CH₂Ph] | 93
COC(=O)CCC(NC(=O)CC(O)C(CC1CCCCC1)NC(=O)C(NC(C)=O)C(C)(C)C)C(=O)NCCc1ccccc1 (stereo not shown) [Ac-Tbg-ACHPA-Glu(OMe)-NHCH2CH2Ph, Ac-Tbg-ACHPA-Glu(OMe)-NHCH₂CH₂Ph] | 150
CC(=O)NC(C(=O)NC(CC1CCCCC1)C(O)CC(=O)NC(CCC(=O)O)C(=O)NCCc1ccccc1)C(C)(C)C (stereo not shown) [Ac-Tbg-ACHPA-Glu-NHCH2CH2Ph, Ac-Tbg-ACHPA-Glu-NHCH₂CH₂Ph] | 12
COC(=O)CCC(NC(=O)CC(O)C(CC1CCCCC1)NC(=O)C(NC(C)=O)C(C)C)C(=O)NCCc1ccccc1 (stereo not shown) [Ac-Val-ACHPA-Glu(OMe)-NHCH2CH2Ph, Ac-Val-ACHPA-Glu(OMe)NHCH₂CH₂Ph] | 480
CC(=O)NC(C(=O)NC(CC1CCCCC1)C(O)CC(=O)NC(CCC(=O)O)C(=O)NCCc1ccccc1)C(C)C (stereo not shown) [Ac-Val-ACHPA-Glu-NHCH2CH2Ph, Ac-Val-ACHPA-Glu-NHCH₂CH₂Ph] | 31
CC(=O)NC(C(=O)NC(CNC(CC(C)C)C(=O)NC(CCC(=O)O)C(=O)NCCc1ccccc1)Cc1ccccc1)C(C)C (stereo not drawn) [Ac-Val-Pheψ[CH2NH]Leu-Glu-NHCH2CH2Ph, Ac-Val-PheΨ[CH₂NH]Leu-Glu-NHCH₂CH₂Ph] | 16
CCC(=O)NC(C(=O)NC(CC1CCCCC1)C(O)CC(=O)NC(CCC(=O)O)C(=O)NCCc1ccccc1)C(C)(C)C (stereo not shown) [CH3CH2C(O)-Tbg-ACHPA-Glu-NHCH2CH2Ph, CH₃CH₂C(O)-Tbg-ACHPA-Glu-NHCH₂CH₂Ph] | 15

tested on: HIV; assay: Inhibition of syncytia formation by HIV in HTLV-I transformed C8166 cells (adapted plaque assay); format: cell-based, H9/HTLV-IIIB; conditions: Human immunodeficiency virus 1, IIIB, C8166, 72 h, read-out: inhibition of syncytia formation
Text: Typical of such procedures are those described by S. Harada and N. Yamamoto, Jpn. J. Cancer Res. (Gann), 76, 432 (1985), and S. Harada et al., Science 229, 563 (1985). An assay based on the latter procedures is described in the examples hereinafter.
The following protocol, used for screening antiviral effects of the compounds of formula 1, is adapted from a plaque assay utilizing HTLV-I transformed cells which was developed by Harada et al., supra. HTLV-I transformed cells are used in these assays because of the rapidity with which HIV will replicate in these cells. • 1. The test compound is dissolved in dimethylsulfoxide to a concentration of 5 mg/mL. The resultant solution can be stored at 4° until used. • 2. The resultant solution is diluted in RPMI 1640 (Gibco Laboratories, St. Lawrence, MA, USA) to four times (4x) the final concentration which is to be tested. Once diluted in RPMI 1640, the solution is used in the cell culture assay within 4 h. • 3. The 4x solution (50µL) is added to triplicate wells of a 96 well flat bottomed microtiter plate. RPMI […] also is added to control wells. • 4. […] Infectious titer of virus stocks are as previously determined by end point dilution on C8166 cells. […] Plates are then removed and centers of syncytia are counted in each well by low power phase contrast light microscopy. […] Percent inhibition of syncytia formation is calculated by the formula: [formula]

Compound | inhibition at 20 µg/mL [%]
COC(=O)CCC(NC(=O)CC(O)C(CC1CCCCC1)NC(=O)C(NC(=O)C(O)CO)C(C)(C)C)C(=O)NCCc1ccccc1 [(S)-HOCH₂CH(OH)C(O)-Tbg-ACHPA-Glu(OMe)NHCH₂CH₂Ph] | 100
CCC(=O)NC(C(=O)NC(CC1CCCCC1)C(O)CC(=O)NC(CCC(=O)O)C(=O)NCCc1ccccc1)C(C)(C)C (stereo not shown) [CH3CH2C(O)-Tbg-ACHPA-Glu-NHCH2CH2Ph, CH₃CH₂C(O)-Tbg-ACHPA-Glu-NHCH₂CH₂Ph] | 49
